The test system of data set [1] is DNA probe containing the clpC2 operator site. In words: EMSA, ClpC1 binding to DNA. (In EMSA bound probe runs differently from free probe, usually more slowly.)
The test system of the next data set is ClpC1 NTD. The conditions noted are these: cited from earlier work.
Data set [2] addresses cyclomarin A (Streptomyces sp. CNB-982). In words: ITC; 50 uM (monomer) ClpC1 NTD or ClpC2 titrated into 5 uM CymA at 37 C; 50 mM HEPES-KOH pH 7.5, 150 mM KCl, 9% DMSO, 1 mM EDTA; one-site binding model. (In general: In ITC the heat of successive injections is recorded.)
The target of the next data set is T1, ClpC2 WT (Mycobacterium tuberculosis, UniProt P9WPC7 1-252).
T1 sequence: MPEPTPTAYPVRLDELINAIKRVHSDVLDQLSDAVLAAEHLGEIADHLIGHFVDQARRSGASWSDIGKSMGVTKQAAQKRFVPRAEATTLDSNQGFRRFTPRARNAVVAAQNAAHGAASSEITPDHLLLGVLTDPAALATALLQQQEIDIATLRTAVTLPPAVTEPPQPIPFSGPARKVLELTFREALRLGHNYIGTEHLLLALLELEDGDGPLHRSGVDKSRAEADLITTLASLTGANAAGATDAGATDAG
As to the kind of experiment: EMSA; 1-25 nM ClpC2, 0.5 nM DNA, no CymA; EMSA: 5 mM HEPES-KOH pH 7.5, 30 mM KCl, 1% glycerol, 10 mM MgCl2, room temperature 20 min, 12% polyacrylamide gel. The conditions noted are these: protein: recombinant; tags: untagged; chain copies: 2; label: 5'-FAM; blunt.

A further data set addresses ClpC1 (Mycobacterium tuberculosis, UniProt P9WPC9 1-848). In words: EMSA; 1-25 uM ClpC1, 0.5 nM DNA; EMSA: 5 mM HEPES-KOH pH 7.5, 30 mM KCl, 1% glycerol, 10 mM MgCl2, room temperature 20 min, 12% polyacrylamide gel. The conditions noted are these: protein: recombinant; tags: untagged; label: 5'-FAM; blunt.

Sequence of ClpC1 (P9WPC9 whole entry): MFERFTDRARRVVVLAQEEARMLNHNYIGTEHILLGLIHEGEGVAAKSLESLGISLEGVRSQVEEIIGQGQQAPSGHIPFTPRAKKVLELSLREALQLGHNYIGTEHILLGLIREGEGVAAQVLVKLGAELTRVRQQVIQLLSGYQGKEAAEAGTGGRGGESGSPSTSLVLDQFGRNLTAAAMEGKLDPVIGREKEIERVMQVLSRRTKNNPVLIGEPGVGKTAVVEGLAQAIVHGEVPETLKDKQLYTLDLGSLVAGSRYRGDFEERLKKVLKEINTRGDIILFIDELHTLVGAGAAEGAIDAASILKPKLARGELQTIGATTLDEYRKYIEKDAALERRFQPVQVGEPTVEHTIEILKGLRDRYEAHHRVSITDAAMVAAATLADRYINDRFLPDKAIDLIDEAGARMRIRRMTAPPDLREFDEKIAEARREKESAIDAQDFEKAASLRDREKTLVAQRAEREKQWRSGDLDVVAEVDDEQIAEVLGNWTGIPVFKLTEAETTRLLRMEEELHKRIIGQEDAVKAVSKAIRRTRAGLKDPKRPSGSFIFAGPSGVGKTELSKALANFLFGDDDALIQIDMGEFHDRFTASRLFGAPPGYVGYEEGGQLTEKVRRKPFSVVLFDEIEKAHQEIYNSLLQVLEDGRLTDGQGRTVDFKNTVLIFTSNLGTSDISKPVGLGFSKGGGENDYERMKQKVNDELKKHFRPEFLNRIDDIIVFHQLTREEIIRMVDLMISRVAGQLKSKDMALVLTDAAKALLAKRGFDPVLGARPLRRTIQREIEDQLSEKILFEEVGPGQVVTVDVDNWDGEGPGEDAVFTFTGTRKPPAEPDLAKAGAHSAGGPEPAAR

In the case of “ClpC1: AAA+ chaperone ClpC1, purified Mtb protein”, the “affinity of ClpC1 for DNA relative to ClpC2” value in data set [1] (EMSA) was “at least two orders of magnitude lower affinity than exhibited by ClpC2”. Also, the “sequence specificity of ClpC1 for clpC2 operator site” value in data set [1] (EMSA with unlabelled competitor DNA) is “little sequence specificity for the clpC2 operator site”. In addition, in data set [1] (EMSA, 1-25 µM ClpC1, 0.5 nM DNA probe with clpC2 operator site), the “KD, ClpC1 to DNA” value is given as “low micromolar range”. For the molecule ecumicin, the target binding domain result with ClpC1 NTD is recorded as “specifically target ClpC1 NTD”. As for lassomycin, the target binding domain entry in the data set with ClpC1 NTD is reported as “specifically target ClpC1 NTD”.

For orientation: Kd means the equilibrium constant for the complex coming apart. Read a low Kd as tighter binding. As a reminder, the stoichiometry N is a count of units in the complex or per binding partner. For the molecule “Mycobacterium tuberculosis ClpC2 (full length, wild type) (natural protein)”, in data set [2], the dissociation constant Kd came to 2.2 nM and the stoichiometry N is 1. Turning to “ClpC1 N-terminal domain, residues 1-145 (ClpC1 NTD) (from UniProt P9WPC9 1-145) (domain or fragment)”, the Kd in data set [2] turned out to be 2.3 nM.

B1: clpC2_FAM_EMSA 41 bp operator probe (dsDNA)
DNA 1: ACAATGCATAACGTCAACCTACTGTTGACGTCATGCCGGAG
DNA 2: CTCCGGCATGACGTCAACAGTAGGTTGACGTTATGCATTGT
Turning to B1, the binding result in the data set with ClpC2 WT and with ClpC1 was “binds” in each case.

The record behind these values is paper PMC10030653, “ClpC2 protects mycobacteria against a natural antibiotic targeting ClpC1-dependent protein degradation” (Communications Biology, 2023).
